According to publication PMC12588083, “Validated antimalarial drug target discovery using genome-scale metabolic modeling” (Antimicrobial Agents and Chemotherapy, 2025):
“Also recorded” adds a separate entry of the source.

Tests used:
[1] = target: T1, hUCK (Homo sapiens, UniProt P30085); settings: read-out: Km hUCK; phosphate acceptor; literature values ref 66; cited from earlier work
[2] = target: recombinant PfUCK (P. falciparum UMP-CMP kinase, PfUCK-Δ23) (Plasmodium falciparum, UniProt Q8I231); experiment: Inhibition constant (Ki) determination, coupled PK/LDH NADH assay, recombinant PfUCK; assay type: biochemical
Description: (§1) The hydrophobic core at the protein’s N-terminus may cause poor expression and low solubility in E. coli. Therefore, a truncated gene was created where the ORF began at amino acid residues 24–371, encoding a 348 amino acid protein. […] Briefly, protein expression was induced with isopropyl-D-thiogalactoside, incubated at 16°C with shaking at 200 RPM for 20 hours, and the cell pellet resuspended in binding buffer (50 mM Tris [pH 7.6], 300 mM NaCl, 20 mM imidazole, 5% glycerol, and 0.075% β-mercaptoethanol), with cell disruption using an Avestin C3 Cell Disrupter. Cell debris was removed, and the UCK was purified by Ni-NTA affinity purification. The protein was eluted from the column using a linear gradient of imidazole ([…]) in elution buffer (50 mM Tris [pH 7.6], 300 mM NaCl, 5% glycerol, and 0.075% β-mercaptoethanol). […] The concentrated protein was then stored at −70°C in a storage buffer (25 mM Tris-HCl, 50 mM KCl, and 20% glycerol; pH 7.0).
(§2) The final concentration of dimethyl sulfoxide (Merck, Catalog number 472301) in the assay reaction was maintained at 1%.

[3] = system: recombinant PfUCK (P. falciparum UMP-CMP kinase, PfUCK-Δ23); experiment: as above; assay type: biochemical, Plasmodium falciparum; settings: hUCK versus PfUCK
Description: as §1, §2

[4] = target: T2, recombinant human UMP-CMP kinase (hUCK) (Homo sapiens, UniProt P30085); experiment: Inhibition constant (Ki) determination, coupled PK/LDH NADH assay, hUCK; assay type: biochemical; settings: for Ki—hUCK: 1 mM CMP, competitive equation
T2 construct: constructed by amplifying its ORF from an available commercial plasmid; His tag (vector-encoded by pET28a; the text names only the HisPur Ni-NTA and His GraviTrap TALON columns) (N); host or cells: E. coli BL21 (DE3) with extra argU, ileY and leuW tRNA genes
T2 sequence (P30085 1-228 isoform P30085-3): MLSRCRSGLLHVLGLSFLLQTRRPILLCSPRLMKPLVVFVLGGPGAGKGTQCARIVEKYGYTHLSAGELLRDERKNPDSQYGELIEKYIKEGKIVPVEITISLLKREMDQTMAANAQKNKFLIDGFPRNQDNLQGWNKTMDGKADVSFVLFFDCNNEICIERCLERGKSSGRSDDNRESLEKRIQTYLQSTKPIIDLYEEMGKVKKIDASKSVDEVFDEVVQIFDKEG
Description: The protein was purified with a HisPur Ni-NTA Spin column, and elution was performed with 250 mM imidazole in elution buffer (50 mM Tris-HCl, 750 mM NaCl, and 10% glycerol; pH 7.5). The protein was further purified using a His GraviTrap TALON column (Cytiva, catalog number 29-0005-94). The buffers employed were binding buffer (50 mM potassium phosphate [KP], 100 mM NaCl, and 10% glycerol; pH 8.0), washing buffer (50 mM KP, 500 mM NaCl, 10 mM imidazole, and 10% glycerol; pH 8.0), and elution buffer (50 mM Tris-HCl, 750 mM NaCl, 250 mM imidazole, and 10% glycerol; pH 7.5). The purified protein was desalted using a PD-10 column (Sephadex G25 M; Cytiva, catalog number 17085101) stored in a storage buffer (25 mM Tris-HCl, 50 mM KCl, and 20% glycerol; pH 7.0). Purity of the recombinant protein was verified via SDS-PAGE (Mini-Protein TGX Precast Gels; Bio-Rad), and its concentration was determined using a Bradford protein assay (Bio-Rad, catalog number 5000006).
as §2

[5] = system: P. falciparum 3D7; experiment: Antiplasmodial activity (IC50), SYBR Green fluorescence, 48 hours; assay type: cell-based, Plasmodium falciparum
Description: P. falciparum 3D7 parasites underwent two synchronization cycles with D-sorbitol initiating the inhibitor testing. Parasitemia and hematocrit were adjusted to 0.5% and 3%, respectively. Synchronized ring parasites were cultured in 96-well plates in complete RPMI medium with varying inhibitor concentrations. Inhibitor stock solutions, mostly at 100 mM, were prepared in DMSO. […] Triplicate wells were prepared for each compound. Negative controls included wells with uninfected red cells (3% hematocrit) in complete RPMI medium.
Culture plates were incubated in a chamber with controlled gas conditions at 37°C. After 48 hours, parasites were quantified using a fluorescence-based assay with SYBR Green dye as previously described ([51]). Lysis buffer containing SYBR Green was added to each well, and plates were incubated at room temperature for 45 minutes and protected from the light. Fluorescence was measured using a microplate reader (POLARstar OPTIMA, BMG Labtech) with excitation at 485 nm and detection at 520 nm. Background fluorescence of uninfected red cells was subtracted, and dose-response curves were plotted against inhibitor concentration. IC50 values were determined using nonlinear regression curve fitting in GraphPad Prism software.

[6] = target: T3, PfUCK (Plasmodium falciparum, UniProt Q8I231); experiment: UCK characterization: Km for nucleoside monophosphate substrates, PfUCK; assay type: biochemical; settings: UMP versus CMP
T3 sequence (Q8I231 24-371): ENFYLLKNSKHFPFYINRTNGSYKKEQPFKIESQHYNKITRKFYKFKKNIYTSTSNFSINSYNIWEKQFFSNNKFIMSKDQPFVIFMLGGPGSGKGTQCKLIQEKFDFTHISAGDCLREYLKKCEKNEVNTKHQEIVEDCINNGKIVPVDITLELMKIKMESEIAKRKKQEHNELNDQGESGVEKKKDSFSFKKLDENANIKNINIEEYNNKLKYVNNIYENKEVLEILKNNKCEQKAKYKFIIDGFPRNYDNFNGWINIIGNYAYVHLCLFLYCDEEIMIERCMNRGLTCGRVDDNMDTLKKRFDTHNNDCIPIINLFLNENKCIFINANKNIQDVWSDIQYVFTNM
Description: (§3) Enzyme activity was assessed using an indirect spectrophotometric assay that measured NADH absorbance at 340 nm coupled to pyruvate kinase/lactate dehydrogenase. The reaction mixture contained 50 mM Tris-HCl (pH 7.6), 50 mM KCl, 10 mM MgCl2, 5 mM ATP, 0.2 mM NADH, 1 mM phosphoenolpyruvate, 10 mM dithiothreitol, pyruvate kinase (10 U/mL), lactate dehydrogenase (15 U/mL), and purified UCK (OD340/min of 0.04–0.06). […] The decrease in absorbance was monitored using a UV/visible spectrophotometer (Ultrospec 2100 Pro).
(§4) Then, a reaction rate was calculated from the decrease in absorbance at 340 nm (εNADH = 6.22 × 10^−3 M^−1 cm^−1) compared to the control reaction in which UCK was absent. The maximum reaction rate (Vmax) and Michaelis constant (Km) values were calculated using the Michaelis-Menten equation (v = Vmax[S] /Km+ [S]), where v is the reaction rate and [S] is the substrate concentration.

[7] = target: T1, hUCK; settings: hUCK versus PfUCK
Description: as §3, §4

[8] = substrate: O=c1ccn([C@@H]2O[C@H](COP(=O)(O)O)[C@@H](O)[C@H]2O)c(=O)[nH]1; experiment: purified protein, by the assay type; settings: other: phosphate acceptor, ATP as phosphate donor, 25°C, pH 7.6
[9] = substrate: Nc1ccn([C@H]2C[C@H](O)[C@@H](COP(=O)(O)O)O2)c(=O)n1; experiment: UCK characterization: Km for nucleoside monophosphate substrates, PfUCK; assay type: biochemical, Plasmodium falciparum; settings: other: phosphate acceptor, ATP as phosphate donor, 25°C, pH 7.6
Description: as §3, §4

[10] = substrate: O=c1ccn([C@@H]2O[C@H](COP(=O)(O)O)[C@@H](O)[C@H]2O)c(=O)[nH]1; experiment: as above; assay type: biochemical, Plasmodium falciparum; settings: other: phosphate acceptor, ATP as phosphate donor, 25°C, pH 7.6
Description: as §3, §4

[11] = Table 3, acrylamide and chloroacetamide compounds
[12] = Plasmodium falciparum, 3D7, 48 h, Table 5
[13] = Table 4, benzoylacetonitrile derivatives
[14] = Plasmodium falciparum, 3D7, 48 h, Supplementary Table 7, benzoylacetonitrile derivatives
[15] = Supplementary Table 7, benzoylacetonitrile derivatives

For Nc1ccn([C@H]2C[C@H](O)[C@@H](COP(=O)(O)O)O2)c(=O)n1 [dCMP], the Km [1] is listed as 900 ± 100 µM.

Molecule O=C(CCl)NCc1cc(=O)n2ccccc2n1 [Compound C21] has a Ki [2] of 13.7 ± 3.18 µM, a Selectivity index ([3]; Table 3) of 0.22 and a Ki [4] of 2.98 ± 0.5 µM. The “Ki—hUCK” value [4, 11] was “inhibited hUCK activity” and the IC50 [5, 12] was 15.6 ± 1.13 µM.

With N#CCC(=O)c1cccc(Cl)c1 [Compound C7] the Ki [2] was 4.26 ± 0.55 µM, the Selectivity index ([3]; Table 4) was over 235 and the “Ki—hUCK” value [4, 13] was “little or no inhibition of hUCK; also recorded: No inhibition at 1 mM”. It also gave an IC50 [5, 14] of over 310 µM and an IC50 [5, 15] of 380 ± 50.1 µM.

Work on C=CC(=O)NCc1cc(=O)n2ccccc2n1 [Compound C43] yielded a Ki [2] of 4.15 ± 0.26 µM, a Selectivity index ([3]; Table 3) of 1.09 and a Ki [4] of 4.55 ± 0.52 µM. The “Ki—hUCK” value [4, 11] was “inhibited hUCK activity” and the IC50 [5, 12] was over 1000 µM.

In the case of O=c1ccn([C@@H]2O[C@H](COP(=O)(O)O)[C@@H](O)[C@H]2O)c(=O)[nH]1 [UMP], the “fold higher Km than CMP, PfUCK” value [6] is given as 3.9 fold, the “hUCK Km fold greater than PfUCK” value [7] is given as 2.3 fold and the Km [1] is given as 45 ± 10 µM.

For N#CCC(=O)c1cccc(F)c1 [Compound C38], the Ki [2] was 1.66 ± 0.27 µM, the “Ki—hUCK” value [4, 13] was “little or no inhibition of hUCK; also recorded: No inhibition at 0.5 mM” and the IC50 [5, 14] was over 310 µM. The IC50 [5, 15] was 339 ± 26.4 µM.

In the case of N#CCC(=O)c1ccc(Cl)c(Cl)c1 [Compound C12], the Ki [2] is reported as 11.3 ± 2.22 µM, the Selectivity index ([3]; Table 4) is reported as over 89 and the “Ki—hUCK” value [4, 13] is reported as “No inhibition at 1 mM”. The “IC50 - P. falciparum (3D7), µM” value [5, 15] was “no inhibition at 0.5 mM”.

For N#CCC(=O)c1ccccc1Cl [Compound C39], the Ki [2] was 3.64 ± 0.59 µM, the Selectivity index ([3]; Table 4) was over 275 and the “Ki—hUCK” value [4, 13] was “little or no inhibition of hUCK; also recorded: No inhibition at 1 mM”. For the same molecule, the “IC50 - P. falciparum (3D7), µM” value [5, 15] was “no inhibition at 1 mM”.

For CMP, the Km [1] is listed as 20 ± 5 µM.

B1: hUCK (Homo sapiens) (protein)
chain: MLSRCRSGLLHVLGLSFLLQTRRPILLCSPRLMKPLVVFVLGGPGAGKGTQCARIVEKYGYTHLSAGELLRDERKNPDSQYGELIEKYIKEGKIVPVEITISLLKREMDQTMAANAQKNKFLIDGFPRNQDNLQGWNKTMDGKADVSFVLFFDCNNEICIERCLERGKSSGRSDDNRESLEKRIQTYLQSTKPIIDLYEEMGKVKKIDASKSVDEVFDEVVQIFDKEG
B1 gave a Km [8] of 47.7 ± 3.2 µM.

B2: PfUCK (Plasmodium falciparum 3D7) (protein)
chain: ENFYLLKNSKHFPFYINRTNGSYKKEQPFKIESQHYNKITRKFYKFKKNIYTSTSNFSINSYNIWEKQFFSNNKFIMSKDQPFVIFMLGGPGSGKGTQCKLIQEKFDFTHISAGDCLREYLKKCEKNEVNTKHQEIVEDCINNGKIVPVDITLELMKIKMESEIAKRKKQEHNELNDQGESGVEKKKDSFSFKKLDENANIKNINIEEYNNKLKYVNNIYENKEVLEILKNNKCEQKAKYKFIIDGFPRNYDNFNGWINIIGNYAYVHLCLFLYCDEEIMIERCMNRGLTCGRVDDNMDTLKKRFDTHNNDCIPIINLFLNENKCIFINANKNIQDVWSDIQYVFTNM
Work on B2 yielded a Km [9] of 428 ± 11 µM and a Km [10] of 110 ± 14 µM.
